Columns and labels:
human islets [1] = experiment: Extracellular ROS in culture media, Acridan Lumigen PS-3 assay; format: cell-based; conditions: media 24 hr after tacrolimus exposure, ± AAGP
Method: Frozen samples from all groups are utilized to determine reactive oxygen species (ROS) in the culture media, using the Acridan Lumigen™ PS-3 assay (Amershan ECL Plus kit, Fisher Scientific Inc. Ottawa, ON, Canada) (18). In this assay Acridan Lumigen™ PS-3 is excited by reactive oxygen and nitrogen species (RNS) in the presence of hydrogen peroxide, producing chemiluminescense at 430 nm. Media samples are flash-frozen with liquid nitrogen and stored until the assay is performed. CMRL culture media alone is used as a control, and results are expressed as fold-change increase compared to the control media.

human islets [2] = experiment: Intra-islet calcium concentration; format: cell-based; conditions: Tac−, Tac+AAGP groups
Method: Various electrophysiology studies were performed on human islets to elucidate a potential mechanism of action for the AAGP™ by characterizing the CNI-related injury and its avoidance.

human islets [3] = experiment: Capacitance measurement as indicator of exocytosis upon high glucose stimulation; format: cell-based
Method: Complementary capacitance studies were performed with these same conditions as an indirect indicator of exocytosis upon high glucose stimulation.

[4] = system: human islets transplanted under the kidney capsule; experiment: Long-term graft function of minimal mass human islet transplant (blood glucose, IPGTT, graft insulin content); format: in vivo, immunodeficient mice
Description: Eight to 12 week immunodeficient mice (B6.129S7-Rag1^tm1Mom) are obtained from the Jackson Laboratory (Bar Harbor, ME, USA) and housed under specific pathogen-free conditions with access to food and water ad libitum. Animals are cared for according to the guidelines of the Canadian Council on Animal Care, and ethical approval is obtained from the animal welfare committee at the University of Alberta.
Animals are considered diabetic after two consecutive blood glucose measurements are documented≥18 mmol/L.
Ten animals per group received approximately 1,000 IEQ human islets transplanted under the capsule of the left kidney as described previously (19).
Non-fasting blood glucose is monitored in the remaining 7 mice per group three times a week using a portable glucometer (OneTouch Ultra 2, LifeScan, Canada) over 60 days. Normoglycemia is defined when two consecutive readings are below 11.3 mmol/L.
Intraperitoneal Glucose-Tolerance Tests (IPGTT) are conducted 60 days post-transplant to evaluate the capacity of islets to respond to a glucose bolus (3 g/kg) after overnight fast. Blood glucose levels are monitored at baseline (Time 0, 15, 30, 60, 90 and 120 minutes post-injection). All results are compared to blood glucose profiles of naive control mice.
Non-fasting blood glucose levels are recorded for 1 week following nephrectomy. Likewise, the native pancreas is excised at the terminal endpoint, fixed in 10% formalin and analyzed with immunohistochemistry to confirm absence of mouse insulin staining, thus, eliminating residual or regeneration of native pancreatic beta cell function.
Preserved grafts are then processed as previously described and residual insulin content is determined using human insulin ELISA as a measure of surviving islets.

human islets [5] = experiment: Glucose-stimulated insulin secretion (GSIS) perifusion assay; format: cell-based; conditions: 24 h ± AAGP then 24 hr tacrolimus 10 ng/mL; Tac− 158.8
Method: Islet secretory function is assessed by monitoring in vitro insulin secretory profile during continuous glucose stimulation, as described by Cabrera et al Cell transplantation 2008;16(10):1039-1048. This in vitro perifusion assay is a modality of continuous Glucose-Stimulated Insulin Secretion (GSIS) test to stress islets in alternating normoglycemic and hyperglycemic environment to model physiological islet response. Supernatants from the perifusion assay are collected and insulin levels are determined using a commercially available ELISA kit (Insulin ELISA kit. Mercodia Inc. Pittsburgh, PA, USA). Results are expressed as fold-change of insulin secretion compared to the low (2.8 mMol) glucose stimulation baseline, normalized for 100 IEQ.

[6] = system: syngeneic islet transplant; experiment: Syngeneic full mass islet transplant with continuous tacrolimus treatment; format: in vivo, mouse
Description: FIG. 11 illustrates the post-transplant graft function in immunodefficient mice receiving minimal human islet mass (˜1000 IEQ). Islets were previously treated with AAGP™ and tracrolimus accordingly. […] The dotted line indicates graft recovery nephrectomy on day 60. B. Intraperitoneal glucose tolerance test (IPGTT) to evaluate metabolic response after receiving a glucose bolus. C. Insulin content of removed grafts after 60 days of transplant as an indication of residual islet mass. Data points represent mean±SEM adjusted per gram of tissue, (Tac− n=6, Tac+ n=3 and Tac+AAGP™ n=7), *p<0.05, **p<0.01 and ***p<0.001. D and E. Post-transplant graft function in mice receiving syngeneic full mass (˜500 IEQ) islet transplant. AAGP™ was added to the culture media 1 hour prior to transplant and tacrolimus was administered via a subcutaneous osmotic pump (implanted during the same procedure) at a continuous rate of 1 mg/kg/day. D. Pooled blood glucose profiles of animal over 40 days with clear dysfunction for Tac+ islets during the presence of Tac. Vertical dotted line indicates tacrolimus treatment cessation and marks a gradual recovery of Tac+ grafts. Horizontal continuous line at y=11 indicates the normoglycemia limit. Graft recovery nephrectomy was again performed on day 30. E. Mean time-to-euglycemia after transplant showing Tac+AAGP™ mice reversing diabetes earlier (p<0.001, log-rank, Mantel-cox test). […] These differences were not observed in the Tac+AAGP™ group.
To further support these findings a transplant experiment was performed in a syngeneic diabetic mouse transplant model with continuous treatment with tacrolimus to resemble clinical practice.
To make our experiments more clinically relevant, a new in vivo syngeneic mouse transplant model was performed, with tacrolimus as a continuous treatment by means of a subcutaneous osmotic pump. It was observed that the functional impairment of transplanted islets occurred immediately after starting administration of the CNI and lasted during the entire treatment period (7 days).

SMILES: C=CC[C@@H]1/C=C(\C)C[C@H](C)C[C@H](OC)[C@H]2O[C@@](O)(C(=O)C(=O)N3CCCC[C@H]3C(=O)O[C@H](/C(C)=C/[C@@H]3CC[C@@H](O)[C@H](OC)C3)[C@H](C)[C@@H](O)CC1=O)[C@H](C)C[C@@H]2OC.O [Tac+, tacrolimus]
- extracellular ROS (fold-increase vs control media) (human islets [1]): substantial increase in ROS
- calcium concentration in islets (human islets [2]): neither tacrolimus nor AAGP™ affected the calcium concentration
- cumulative capacitance area under the curve (human islets [3]): 39.08
- IPGTT AUC ([4]; 60 days post-transplant, glucose bolus 3 g/kg, Tac− 92.63, naïve 71.43): 149.8
- insulin content of recovered graft ([4]; after 60 days of transplant): 30.86 ng/mL
- blood glucose over 60 days post-transplant ([4]; marginal islet mass model, n=7 per group): all mice remained hyperglycemic
- GSIS perifusion AUC (human islets [5]): 8.22
- graft function / period to achieve euglycemia ([6]; AAGP in culture media 1 hour prior to transplant, tacrolimus 1 mg/kg/day by osmotic pump): unable to effectively secrete insulin and return animals to euglycemic state
- IPGTT AUC under tacrolimus treatment ([6]; initial IPGTT (7 days), tacrolimus 1 mg/kg/day): 101

Reference: patent US12521419B2, “Use of anti-aging glycopeptides to enhance pancreatic cell health, survival and improve transplant outcome” (Protokinetix Inc., priority 2014, dated 2026)
